In patent publication US11566007B2, “Ras inhibitors” (Revolution Medicines, Inc., priority 2019, dated 2023) one finds IC50 and EC50 data, which are given here for 6 compounds.

Values joined by “and” are separate entries in the source; they are usually repeats but may differ in a detail not shown here. Equal values may be shown once. Where only a bound is given, the exact number is not on record here.

Usually IC50 stands for the concentration that inhibits the measured activity by half. Usually EC50 stands for the concentration at which the effect is half-maximal.

In assay [1] the target is KRAS WT (Homo sapiens (Human), UniProt P01116+P62937). As to the kind of experiment: Ras-Raf (BRAF RBD) disruption / FRET / MOA assay, KRAS WT. The assay is classed as biochemical. Conditions: read-out: IC50* KRAS WT FRET data. The procedure, abridged: (§1)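 Compounds, top final concentration 30 μM in 10-point 3-fold series, incubated 3 hours at 25° C with nucleotide-loaded Ras, cyclophilin A and BRAF RBD.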
KRAS WT, sequence (P01116-2 other isoform, or with tags, fused parts or gaps): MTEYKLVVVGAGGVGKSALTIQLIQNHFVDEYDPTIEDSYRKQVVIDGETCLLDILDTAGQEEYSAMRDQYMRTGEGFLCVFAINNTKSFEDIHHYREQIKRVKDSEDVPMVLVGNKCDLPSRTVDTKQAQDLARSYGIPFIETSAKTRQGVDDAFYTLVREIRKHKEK
KRAS WT, sequence (P62937 whole entry): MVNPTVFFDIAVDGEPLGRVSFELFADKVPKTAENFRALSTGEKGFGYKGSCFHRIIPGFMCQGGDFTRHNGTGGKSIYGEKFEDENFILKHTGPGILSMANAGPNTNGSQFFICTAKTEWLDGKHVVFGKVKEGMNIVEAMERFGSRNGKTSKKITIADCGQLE

The target in assay [2] is KRAS G12V (Homo sapiens (Human), UniProt P01116+P62937, G12V). Nature of the assay: Ras-Raf (BRAF RBD) disruption / FRET / MOA assay, KRAS G12V. The assay is classed as biochemical. The following applies: read-out: IC50* KRAS G12V FRET data. An outline of the steps:
as §1

For assay [3], the target named is K-Ras G12C (Homo sapiens (Human), UniProt P01116+P62937, G12C). Nature of the assay: Ras-Raf (BRAF RBD) disruption / FRET / MOA assay, KRAS G12C. Type of assay: biochemical. Conditions: KRAS G12C; Ras-Raf disruption/FRET/MOA assay; read-out: IC50* KRAS G12C FRET data. An outline of the steps:
as §1

The target in assay [4] is KRAS G12S (Homo sapiens (Human), UniProt P01116+P62937, G12S). Nature of the assay: Ras-Raf (BRAF RBD) disruption / FRET / MOA assay, KRAS G12S. The assay is classed as biochemical. The following applies: Ras-Raf disruption/FRET/MOA assay; class symbols; read-out: KRAS G12S FRET data IC50. The procedure, abridged: as §1
KRAS G12S, sequence (P01116-2 other isoform, or with tags, fused parts or gaps G12S): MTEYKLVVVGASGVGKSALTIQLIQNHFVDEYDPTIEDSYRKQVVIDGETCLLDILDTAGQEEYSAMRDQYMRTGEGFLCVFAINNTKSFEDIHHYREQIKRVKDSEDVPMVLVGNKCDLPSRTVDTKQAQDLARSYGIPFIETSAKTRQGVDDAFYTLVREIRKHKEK
KRAS G12S, sequence (P62937 whole entry): as the sequence (P62937 whole entry) above
Assay [5] deals with NCI-H358 (K-Ras G12C). As to the kind of experiment: CellTiter-Glo cell viability assay, NCI-H358. The assay is classed as cell-based, human. Conditions: Homo sapiens, NCI-H358, 120 h, NCI-H358, 5-day treatment; class symbols; read-out: Additional H358 Cell Viability assay data (K-Ras G12C, IC50). An outline of the steps:
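Compounds were dispensed directly onto K-Ras mutant cells and incubated until day 5, then plates were equilibrated to room temperature for about 30 minutes before CellTiter-Glo luminescence. Signals were normalized as (sample/average DMSO)*100 and fitted by four-parameter logistic fit.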

Assay [6] relates to NCI-H358 cells (K-Ras G12C). Nature of the assay: Potency assay: pERK in NCI-H358 cells. Type of assay: cell-based, human. Conditions: Homo sapiens, NCI-H358; H358 KRAS G12C; read-out: pERK EC50. An outline of the steps: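 Inhibition of cellular pERK after a 4 h treatment, detected by AlphaLISA or In-Cell Western. IC50 from a four-parameter concentration-response fit.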
In assay [7] the target is NRAS G12C (Homo sapiens (Human), UniProt P01111+P62937, G12C). As to the kind of experiment: Ras-Raf (BRAF RBD) disruption / FRET / MOA assay, NRAS G12C. The assay is classed as biochemical. The following applies: read-out: IC50* NRAS G12C FRET data. The procedure, abridged: as §1
NRAS G12C, sequence (P01111 whole entry G12C): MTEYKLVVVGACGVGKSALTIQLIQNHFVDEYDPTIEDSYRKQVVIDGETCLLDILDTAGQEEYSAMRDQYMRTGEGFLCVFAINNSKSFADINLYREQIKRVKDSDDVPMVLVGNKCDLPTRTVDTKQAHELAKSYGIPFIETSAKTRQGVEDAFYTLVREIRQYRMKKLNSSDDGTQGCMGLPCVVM
NRAS G12C, sequence (P62937 whole entry): as the sequence (P62937 whole entry) above
The target in assay [8] is KRAS G12D (Homo sapiens (Human), UniProt P01116+P62937, G12D). As to the kind of experiment: Ras-Raf (BRAF RBD) disruption / FRET / MOA assay, KRAS G12D. Type of assay: biochemical. Conditions: Ras-Raf disruption/FRET/MOA assay; class symbols; read-out: KRAS G12D FRET data IC50. The procedure, abridged:
as §1

The target of assay [9] is K-Ras G13C (Homo sapiens (Human), UniProt P01116+P62937, G13C). As to the kind of experiment: Ras-Raf (BRAF RBD) disruption / FRET / MOA assay, KRAS G13C. Type of assay: biochemical. Conditions: KRAS G13C; Ras-Raf disruption/FRET/MOA assay; read-out: IC50* KRAS G13C FRET data. An outline of the steps: as §1
K-Ras G13C, sequence (P01116-2 other isoform, or with tags, fused parts or gaps G13C): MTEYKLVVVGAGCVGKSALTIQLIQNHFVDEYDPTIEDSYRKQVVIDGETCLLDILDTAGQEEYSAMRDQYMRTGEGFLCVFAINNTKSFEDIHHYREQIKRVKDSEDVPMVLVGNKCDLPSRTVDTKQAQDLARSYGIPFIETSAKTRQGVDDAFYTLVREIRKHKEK
K-Ras G13C, sequence (P62937 whole entry): as the sequence (P62937 whole entry) above
For assay [10], the target named is KRAS G13D (Homo sapiens (Human), UniProt P01116+P62937, G13D). Nature of the assay: Ras-Raf (BRAF RBD) disruption / FRET / MOA assay, KRAS G13D. The assay is classed as biochemical. Conditions: read-out: IC50* KRAS G13D FRET data. An outline of the steps: as §1
KRAS G13D, sequence (P01116-2 other isoform, or with tags, fused parts or gaps G13D): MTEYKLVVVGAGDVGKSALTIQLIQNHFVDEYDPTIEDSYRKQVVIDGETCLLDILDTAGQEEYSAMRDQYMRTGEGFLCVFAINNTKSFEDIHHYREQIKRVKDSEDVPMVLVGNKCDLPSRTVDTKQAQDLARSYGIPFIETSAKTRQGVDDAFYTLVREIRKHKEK
KRAS G13D, sequence (P62937 whole entry): as the sequence (P62937 whole entry) above

KRAS G12V, sequence (P01116-2 other isoform, or with tags, fused parts or gaps G12V): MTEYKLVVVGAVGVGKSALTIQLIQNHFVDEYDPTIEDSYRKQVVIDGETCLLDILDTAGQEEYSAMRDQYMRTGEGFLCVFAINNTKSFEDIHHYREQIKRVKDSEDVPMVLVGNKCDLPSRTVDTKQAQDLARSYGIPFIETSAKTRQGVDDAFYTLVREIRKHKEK
KRAS G12V, sequence (P62937 whole entry): as the sequence (P62937 whole entry) above
K-Ras G12C, sequence (P01116-2 other isoform, or with tags, fused parts or gaps G12C): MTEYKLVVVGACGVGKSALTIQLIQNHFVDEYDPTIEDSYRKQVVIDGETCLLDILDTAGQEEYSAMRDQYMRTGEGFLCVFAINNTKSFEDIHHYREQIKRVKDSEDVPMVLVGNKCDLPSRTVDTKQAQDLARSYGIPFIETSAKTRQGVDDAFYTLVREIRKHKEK
K-Ras G12C, sequence (P62937 whole entry): as the sequence (P62937 whole entry) above
KRAS G12D, sequence (P01116-2 other isoform, or with tags, fused parts or gaps G12D): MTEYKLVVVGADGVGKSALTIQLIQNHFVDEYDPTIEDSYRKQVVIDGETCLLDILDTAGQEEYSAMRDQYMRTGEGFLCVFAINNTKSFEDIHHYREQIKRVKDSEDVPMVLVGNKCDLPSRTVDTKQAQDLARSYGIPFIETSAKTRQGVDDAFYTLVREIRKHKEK
KRAS G12D, sequence (P62937 whole entry): as the sequence (P62937 whole entry) above

Regarding `CCn1c(-c2cccnc2COC)c2c3cc(ccc31)-c1cc(O)cc(c1)C[C@H](NC(=O)[C@H](C(C)C)N(C)C(=O)[C@@H]1CCN(C(=O)C#CC(C)(C)N(C)C)C1)C(=O)N1CCC[C@H](N1)C(=O)OCC(C)(C)C2` [Example A162], the IC50 is 1000 to 10000 nM in [1]; 100 to 1000 nM in [2]; < 10 nM in [3]; 1000 to 10000 nM in assay [4]; < 10 nM in assay [5]; < 10 nM in [7]. The IC50 in assay [8] fell in the range of 1 to 10 µM; in [9] it was 100 to 1000 nM; in assay [10], 1000 to 10000 nM. In assay [6], the concentration for a half-maximal effect (EC50) was < 5 µM.
For the compound `CCn1c(-c2cccnc2[C@H](C)OC)c2c3cc(ccc31)-c1cccc(c1)C[C@H](NC(=O)[C@H](C(C)C)N(C)C(=O)[C@H]1CCN(C(=O)C#CCN(C)C)C1)C(=O)N1CCC[C@H](N1)C(=O)OCC(C)(C)C2` (atropisomer, axis not shown) [Example A121], the half-maximal inhibitory concentration (IC50) in [1] is 1000 to 10000 nM and > 10000 nM; in assay [2] it was 1000 to 10000 nM and > 10000 nM; in assay [3], 10 to 100 nM and < 10 nM; in assay [4], 1000 to 10000 nM and > 10000 nM; in [5], 10 to 100 nM; in assay [7] it was 10 to 100 nM and < 10 nM. Besides, the IC50 was 1 to 10 µM in assay [8]; 10 to 100 nM and 1000 to 10000 nM in [9]; 1000 to 10000 nM in assay [10]. Further, in assay [6], the EC50 was < 5 µM.
In the case of `CCn1c(-c2cccnc2[C@H](C)OC)c2c3cc(ccc31)-c1cccc(c1)C[C@H](NC(=O)[C@H](C(C)C)N(C)C(=O)[C@H]1CCN(C(=O)/C=C/CF)C1)C(=O)N1CCC[C@H](N1)C(=O)OCC(C)(C)C2` [Example A449], the 50% inhibitory concentration (IC50) lay within 1000 to 10000 nM in assay [1]; 1000 to 10000 nM in assay [2]; 100 to 1000 nM in assay [3]; 1000 to 10000 nM in [4]; 10 to 100 nM in assay [5]; 100 to 1000 nM in assay [7]. Moreover, the figures for the IC50 in assay [8], in [9] and in [10] were > 10 µM, 100 to 1000 nM and 1000 to 10000 nM, respectively. Besides, the EC50 in [6] is < 5 µM.
For the compound `C=CC(=O)N1C[C@@H](C(=O)N(C)[C@H](C(=O)N[C@H]2Cc3cc(O)cc(c3)-c3ccc4c(c3)c(c(-c3cccnc3COC)n4CC)CC(C)(C)COC(=O)[C@@H]3CCCN(N3)C2=O)C(C)C)C[C@H]1C` [Example A158], the half-inhibitory concentration (IC50) fell in the range of 100 to 1000 nM in assay [1]; 1000 to 10000 nM in assay [2]; 10 to 100 nM in assay [3]; 100 to 1000 nM in assay [4]; 10 to 100 nM in [5]; 10 to 100 nM in assay [7]. Besides, the IC50 in assay [8] is > 10 µM; in assay [9], 100 to 1000 nM; in assay [10], 100 to 1000 nM. Further, in [6], the EC50 was < 5 µM.
For the compound `C=CC(=O)NC1CN(C(=O)N(C)[C@H](C(=O)N[C@H]2Cc3nc(cs3)-c3ccc4c(c3)c(c(-c3cccnc3[C@H](C)OC)n4CC)CC(C)(C)COC(=O)[C@@H]3CCCN(N3)C2=O)C(C)C)C1` (atropisomer, axis not shown) [Example A490], the IC50 was in the range of 100 to 1000 nM in [1]; 100 to 1000 nM in [2]; 10 to 100 nM in [3]; 100 to 1000 nM in [4]; 10 to 100 nM in [5]; 10 to 100 nM in assay [7]. Further, the values for the IC50 in assay [8], in assay [9] and in assay [10] were 1 to 10 µM, 100 to 1000 nM and 100 to 1000 nM, respectively. Also, the half-maximal effective concentration (EC50) in assay [6] was < 5 µM.
Turning to `C=CC(=O)N1CC[C@H](C(=O)N(C)[C@H](C(=O)N[C@@H]2C(=O)N3CCC[C@H](N3)C(=O)OCC(C)(C)Cc3c(-c4cncnc4)n(CC)c4ccc(cc34)-c3cccc(c3)[C@H]2O)C(C)C)C1` [Example A272], the IC50 in [1] is > 10000 nM; in assay [2] it was > 10000 nM; in assay [3] it was 1000 to 10000 nM; in [4], > 10000 nM; in [5] it was > 1000 nM; in assay [7], > 10000 nM. Further, the half-maximal inhibitory concentration (IC50) in assay [8] is > 10 µM; in assay [9], > 10000 nM; in assay [10], > 10000 nM. In addition, the EC50 in assay [6] is < 5 µM.
